Legend:
oval-leafed pondweed = test: Test Example 1: herbicidal activity, application before weed generation under submerged conditions (Table 16, symbol C); assay type: in vivo, oval-leafed pondweed (Monochoria vaginalis); settings: 320 g/ha applied herbicide
How it was run: (§1)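 Alluvial soil was flooded to 4 cm depth, weed seeds were sown mixed and 2.5-leaf rice seedlings were transplanted. On sowing day, the compound's emulsion, diluted in water to a set dose, was applied to the water surface. Plants grew at 25–30 °C and were scored 0–5 after three weeks.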

persian speedwell = test: Test Example 5: herbicidal effect by foliage application, plastic box (Table 20, symbol R); assay type: in vivo, Persian speedwell (Veronica persica); settings: foliage application, AAH 320 g/ha, evaluated three weeks after application
How it was run: (§2)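 Plants were sown into sterilized diluvial soil under about 1.5 cm cover and kept in a greenhouse at 25° C. to 30° C. Fourteen days on, foliage received an even spray of the diluted emulsion. Herbicidal or crop effect was judged three weeks afterwards.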

false cleavers = test: Test Example 4: herbicidal effect by soil treatment (Table 19, symbol Q); assay type: in vivo, false cleavers (Galium spurium); settings: amount of applied herbicide 320 g/ha
How it was run: (§3)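 In this soil treatment, the formulated compound reached the seeds only through the soil: seeds were buried about 1.5 cm deep in sterilized diluvial soil, then the diluted emulsion was sprayed over the surface. After three weeks at 25° C. to 30° C. in a greenhouse, effects were graded on criteria from an earlier test.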

blackgrass [1] = test: Test Example 5: herbicidal effect by foliage application, plastic box (Table 20, symbol J); assay type: in vivo, blackgrass (Alopecurus myosuroides); settings: foliage application, AAH 320 g/ha, evaluated three weeks after application
How it was run: as §2

Italian ryegrass [2] = test: Test Example 5: herbicidal effect by foliage application, plastic box (Table 20, symbol K); assay type: in vivo, Italian ryegrass (Lolium multiflorum); settings: foliage application, AAH 320 g/ha, evaluated three weeks after application
How it was run: as §2

southern crabgrass [3] = test: Test Example 4: herbicidal effect by soil treatment (Table 19, symbol F); assay type: in vivo, southern crabgrass (Digitaria ciliaris); settings: amount of applied herbicide 320 g/ha
How it was run: as §3

chickweed [4] = test: Test Example 4: herbicidal effect by soil treatment (Table 19, symbol P); assay type: in vivo, common chickweed (Stellaria media); settings: amount of applied herbicide 320 g/ha
How it was run: as §3

barnyard grass [5] = test: Test Example 3: herbicidal effect by foliage application, Wagner pot (Table 18, symbol H); assay type: in vivo, barnyard grass (Echinochloa crus-galli); settings: amount of applied herbicide 320 g/ha
How it was run: (§4)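 Plants were sown in alluvial soil held under 0.1–0.5 cm standing water and grown 14 days in a greenhouse at 25–30 °C. An emulsifiable formulation, water-diluted to the set dose, was then sprayed onto the foliage, and effects were scored three weeks later using previously defined criteria.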

Italian ryegrass [6] = test: Test Example 4: herbicidal effect by soil treatment (Table 19, symbol K); assay type: in vivo, Italian ryegrass (Lolium multiflorum); settings: amount of applied herbicide 320 g/ha
How it was run: as §3

windgrass [7] = test: Test Example 5: herbicidal effect by foliage application, plastic box (Table 20, symbol L); assay type: in vivo, windgrass (Apera spica-venti); settings: foliage application, AAH 320 g/ha, evaluated three weeks after application
How it was run: as §2

redroot pigweed [8] = test: Test Example 5: herbicidal effect by foliage application, plastic box (Table 20, symbol N); assay type: in vivo, redroot pigweed (Amaranthus retroflexus); settings: foliage application, AAH 320 g/ha, evaluated three weeks after application
How it was run: as §2

velvetleaf [9] = test: Test Example 5: herbicidal effect by foliage application, plastic box (Table 20, symbol M); assay type: in vivo, velvetleaf (Abutilon theophrasti); settings: foliage application, AAH 320 g/ha, evaluated three weeks after application
How it was run: as §2

Chinese sprangletop = test: Test Example 3: herbicidal effect by foliage application, Wagner pot (Table 18, symbol D); assay type: in vivo, chinese sprangletop (Leptochloa chinensis); settings: amount of applied herbicide 320 g/ha
How it was run: as §4

velvetleaf [10] = test: Test Example 4: herbicidal effect by soil treatment (Table 19, symbol M); assay type: in vivo, velvetleaf (Abutilon theophrasti); settings: amount of applied herbicide 320 g/ha
How it was run: as §3

green foxtail [11] = test: Test Example 5: herbicidal effect by foliage application, plastic box (Table 20, symbol G); assay type: in vivo, green foxtail (Setaria viridis); settings: foliage application, AAH 320 g/ha, evaluated three weeks after application
How it was run: as §2

windgrass [12] = test: Test Example 4: herbicidal effect by soil treatment (Table 19, symbol L); assay type: in vivo, windgrass (Apera spica-venti); settings: amount of applied herbicide 320 g/ha
How it was run: as §3

chickweed [13] = test: Test Example 5: herbicidal effect by foliage application, plastic box (Table 20, symbol P); assay type: in vivo, common chickweed (Stellaria media); settings: foliage application, AAH 320 g/ha, evaluated three weeks after application
How it was run: as §2

barnyard grass [14] = test: Test Example 4: herbicidal effect by soil treatment (Table 19, symbol H); assay type: in vivo, barnyard grass (Echinochloa crus-galli); settings: amount of applied herbicide 320 g/ha
How it was run: as §3

late watergrass = test: Test Example 1: herbicidal activity, application before weed generation under submerged conditions (Table 16, symbol A); assay type: in vivo, late watergrass (Echinochloa oryzicola); settings: 320 g/ha applied herbicide
How it was run: as §1

lambsquarters [15] = test: Test Example 4: herbicidal effect by soil treatment (Table 19, symbol O); assay type: in vivo, lambsquarters (Chenopodium album); settings: amount of applied herbicide 320 g/ha
How it was run: as §3

redroot pigweed [16] = test: Test Example 4: herbicidal effect by soil treatment (Table 19, symbol N); assay type: in vivo, redroot pigweed (Amaranthus retroflexus); settings: amount of applied herbicide 320 g/ha
How it was run: as §3

wild oat [17] = test: Test Example 5: herbicidal effect by foliage application, plastic box (Table 20, symbol I); assay type: in vivo, wild oat (Avena fatua); settings: foliage application, AAH 320 g/ha, evaluated three weeks after application
How it was run: as §2

lambsquarters [18] = test: Test Example 5: herbicidal effect by foliage application, plastic box (Table 20, symbol O); assay type: in vivo, lambsquarters (Chenopodium album); settings: foliage application, AAH 320 g/ha, evaluated three weeks after application
How it was run: as §2

rice flat sedge = test: Test Example 3: herbicidal effect by foliage application, Wagner pot (Table 18, symbol E); assay type: in vivo, rice flat sedge (Cyperus iria); settings: amount of applied herbicide 320 g/ha
How it was run: as §4

Japanese bulrush = test: Test Example 1: herbicidal activity, application before weed generation under submerged conditions (Table 16, symbol B); assay type: in vivo, Japanese bulrush (Schoenoplectus juncoides); settings: 320 g/ha applied herbicide
How it was run: as §1

blackgrass [19] = test: Test Example 4: herbicidal effect by soil treatment (Table 19, symbol J); assay type: in vivo, blackgrass (Alopecurus myosuroides); settings: amount of applied herbicide 320 g/ha
How it was run: as §3

green foxtail [20] = test: Test Example 4: herbicidal effect by soil treatment (Table 19, symbol G); assay type: in vivo, green foxtail (Setaria viridis); settings: amount of applied herbicide 320 g/ha
How it was run: as §3

southern crabgrass [21] = test: Test Example 5: herbicidal effect by foliage application, plastic box (Table 20, symbol F); assay type: in vivo, southern crabgrass (Digitaria ciliaris); settings: foliage application, AAH 320 g/ha, evaluated three weeks after application
How it was run: as §2

barnyard grass [22] = test: Test Example 5: herbicidal effect by foliage application, plastic box (Table 20, symbol H); assay type: in vivo, barnyard grass (Echinochloa crus-galli); settings: foliage application, AAH 320 g/ha, evaluated three weeks after application
How it was run: as §2

wild oat [23] = test: Test Example 4: herbicidal effect by soil treatment (Table 19, symbol I); assay type: in vivo, wild oat (Avena fatua); settings: amount of applied herbicide 320 g/ha
How it was run: as §3

How did the “Herbicidal effect on C: oval-leafed pondweed (grade 0-5)” value (oval-leafed pondweed) turn out when `Cc1nn(C)c(=O)c(-c2c(-c3ccc(CSCC(F)F)cc3)sc3ccc(F)cc23)c1O` [2-330] was run?
The value was 0 (Herbicidal rate of 5% or less (almost no effect)).

What about the “R: persian speedwell, herbicidal effect (criteria 0-5)” value (persian speedwell) of the same compound?
The value was 5 (Herbicidal rate of 90% or more (almost completely withered)).

And the “herbicidal effect on Q: false cleavers” value (false cleavers)?
The value was 0 (Herbicidal rate of 5% or less (almost no effect)).

What about the “J: blackgrass, herbicidal effect (criteria 0-5)” value (blackgrass [1]) of the same compound?
Its value is 4 (Herbicidal rate of 70% or more and less than 90%).

What about the “K: Italian ryegrass, herbicidal effect (criteria 0-5)” value (Italian ryegrass [2]) of the same compound?
The value was 5 (Herbicidal rate of 90% or more (almost completely withered)).

What about the “herbicidal effect on F: southern crabgrass” value (southern crabgrass [3]) of the same compound?
Its value is 3 (Herbicidal rate of 40% or more and less than 70%).

What about the “herbicidal effect on P: chickweed” value (chickweed [4]) of the same compound?
Its value is 0 (Herbicidal rate of 5% or less (almost no effect)).

What about the “herbicidal effect on H: barnyard grass” value (barnyard grass [5]) of the same compound?
The value was 5 (Herbicidal rate of 90% or more (almost completely withered)).

What about the “herbicidal effect on K: Italian ryegrass” value (Italian ryegrass [6]) of the same compound?
The value was 4 (Herbicidal rate of 70% or more and less than 90%).

What about the “L: windgrass, herbicidal effect (criteria 0-5)” value (windgrass [7]) of the same compound?
Its value is 5 (Herbicidal rate of 90% or more (almost completely withered)).

What about the “N: redroot pigweed, herbicidal effect (criteria 0-5)” value (redroot pigweed [8]) of the same compound?
Its value is 5 (Herbicidal rate of 90% or more (almost completely withered)).

What about the “M: velvetleaf, herbicidal effect (criteria 0-5)” value (velvetleaf [9]) of the same compound?
The value was 5 (Herbicidal rate of 90% or more (almost completely withered)).

And the “herbicidal effect on D: Chinese sprangletop” value (Chinese sprangletop)?
Its value is 2 (Herbicidal rate of 20% or more and less than 40%).

What about the “herbicidal effect on M: velvetleaf” value (velvetleaf [10]) of the same compound?
Its value is 1 (Herbicidal rate of 5% or more and less than 20%).

And the “G: green foxtail, herbicidal effect (criteria 0-5)” value (green foxtail [11])?
Its value is 5 (Herbicidal rate of 90% or more (almost completely withered)).

And the “herbicidal effect on L: windgrass” value (windgrass [12])?
The value was 0 (Herbicidal rate of 5% or less (almost no effect)).

What about the “P: chickweed, herbicidal effect (criteria 0-5)” value (chickweed [13]) of the same compound?
Its value is 5 (Herbicidal rate of 90% or more (almost completely withered)).

What about the “herbicidal effect on H: barnyard grass” value (barnyard grass [14]) of the same compound?
Its value is 2 (Herbicidal rate of 20% or more and less than 40%).

And the “Herbicidal effect on A: late watergrass (grade 0-5)” value (late watergrass)?
The value was 3 (Herbicidal rate of 40% or more and less than 70%).

What about the “herbicidal effect on O: lambsquarters” value (lambsquarters [15]) of the same compound?
Its value is 3 (Herbicidal rate of 40% or more and less than 70%).

What about the “herbicidal effect on N: redroot pigweed” value (redroot pigweed [16]) of the same compound?
The value was 4 (Herbicidal rate of 70% or more and less than 90%).

What about the “I: wild oat, herbicidal effect (criteria 0-5)” value (wild oat [17]) of the same compound?
Its value is 4 (Herbicidal rate of 70% or more and less than 90%).

And the “O: lambsquarters, herbicidal effect (criteria 0-5)” value (lambsquarters [18])?
The value was 5 (Herbicidal rate of 90% or more (almost completely withered)).

And the “herbicidal effect on E: rice flat sedge” value (rice flat sedge)?
Its value is 4 (Herbicidal rate of 70% or more and less than 90%).

And the “Herbicidal effect on B: Japanese bulrush (grade 0-5)” value (Japanese bulrush)?
Its value is 0 (Herbicidal rate of 5% or less (almost no effect)).

And the “herbicidal effect on J: blackgrass” value (blackgrass [19])?
The value was 0 (Herbicidal rate of 5% or less (almost no effect)).

What about the “herbicidal effect on G: green foxtail” value (green foxtail [20]) of the same compound?
Its value is 1 (Herbicidal rate of 5% or more and less than 20%).

What about the “F: southern crabgrass, herbicidal effect (criteria 0-5)” value (southern crabgrass [21]) of the same compound?
The value was 5 (Herbicidal rate of 90% or more (almost completely withered)).

What about the “H: barnyard grass, herbicidal effect (criteria 0-5)” value (barnyard grass [22]) of the same compound?
The value was 5 (Herbicidal rate of 90% or more (almost completely withered)).

What about the “herbicidal effect on I: wild oat” value (wild oat [23]) of the same compound?
Its value is 0 (Herbicidal rate of 5% or less (almost no effect)).

From patent publication US20230085307A1, “PYRIDAZINONE COMPOUND AND HERBICIDE” (NISSAN CHEMICAL CORPORATION, priority 2019, published 2023)
